Source: ChEMBL document CHEMBL5634137, “2,4-Diacetylphloroglucinol (DAPG) derivatives rapidly eradicate methicillin-resistant staphylococcus aureus without resistance development by disrupting membrane” (Eur J Med Chem, 2023)
In brackets after ≈: the same amount, converted by molar mass. Activity calls are given as the source filed them. No cut-off for these calls is given here.

Assays:
Staphylococcus aureus [1] = test: Antibacterial activity against methicillin-resistant Staphylococcus aureus ATCC 4330 assessed as inhibition of bacterial growth incubated for 24 hrs by broth dilution method; format: functional
Staphylococcus aureus [2] = test: Antibacterial activity against methicillin-resistant Staphylococcus aureus ATCC 3392 assessed as inhibition of bacterial growth incubated for 24 hrs by broth dilution method; format: functional
Staphylococcus aureus [3] = test: Antibacterial activity against Methicillin-resistant Staphylococcus aureus USA300 assessed as inhibition of bacterial growth incubated for 24 hrs by broth dilution method; format: functional
Escherichia coli = test: Antibacterial activity against Escherichia coli ATCC 11775 assessed as inhibition of bacterial growth incubated for 24 hrs by broth dilution method; format: functional
Klebsiella pneumoniae = test: Antibacterial activity against Klebsiella pneumoniae […] assessed as inhibition of bacterial growth incubated for 24 hrs by broth dilution method; format: functional
Pseudomonas aeruginosa = test: Antibacterial activity against Pseudomonas aeruginosa […] assessed as inhibition of bacterial growth incubated for 24 hrs by broth dilution method; format: functional
Staphylococcus aureus [4] = test: Bactericidal against methicillin-resistant Staphylococcus aureus ATCC 4330 assessed as inhibition of bacterial growth incubated for 24 hrs by broth dilution method; format: functional
Staphylococcus aureus [5] = test: Bactericidal activity against methicillin-resistant Staphylococcus aureus ATCC 3392 assessed as inhibition of bacterial growth incubated for 24 hrs by broth dilution method; format: functional
Staphylococcus aureus [6] = test: Selectivity index, ratio of MBC for bactericidal against methicillin-resistant Staphylococcus aureus ATCC 4330 to MIC for antibacterial activity against methicillin-resistant Staphylococcus aureus ATCC 4330; format: functional
Staphylococcus aureus [7] = test: Selectivity index, ratio of MBC for bactericidal against methicillin-resistant Staphylococcus aureus ATCC 3392 to MIC for antibacterial activity against methicillin-resistant Staphylococcus aureus ATCC 3392; format: functional
[8] = Cytotoxicity against mouse RAW264.7 cells assessed as survival rate incubated for 24 hrs by MTT assay; format: toxicity, cell-based; parameters: concentration or dose not given beside the values; conditions: read-out: Survival
[9] = Cytotoxicity against human L02 cells assessed as survival rate incubated for 24 hrs by MTT assay; format: toxicity, cell-based; parameters: concentration or dose not given beside the values; conditions: read-out: Survival
Staphylococcus aureus [10] = test: Antibacterial activity against Methicillin-resistant Staphylococcus aureus USA300 infected in mouse skin infection model assessed as reduction in number of bacteria at 10 mg/kg, sc administered every 12 hrs for 3 days; format: functional; conditions: time 3.0 day

SMILES	MIC (Staphylococcus aureus [1]) [µg/mL]	MIC (Staphylococcus aureus [2]) [µg/mL]	MIC (Staphylococcus aureus [3]) [µg/mL]	also measured
CCC(=O)c1c(O)cc(O)cc1O [FLOPROPIONE]	> 64	> 64		
CC1(C)S[C@@H]2[C@H](NC(=O)[C@H](N)c3ccc(O)cc3)C(=O)N2[C@H]1C(=O)O [AMOXICILLIN]			128 (≈ 350 µM)	
CC(C)(C)CC(=O)c1c(O)cc(O)c(C(=O)CC(C)(C)C)c1O	0.5 (≈ 1.55 µM)	0.5 (≈ 1.55 µM)	0.5 (≈ 1.55 µM)	MIC (Escherichia coli): > 64 µg/mL; MIC (Klebsiella pneumoniae): > 64 µg/mL; MIC (Pseudomonas aeruginosa): > 64 µg/mL; MBC (Staphylococcus aureus [4]): 4 µg/mL (≈ 12.4 µM); MBC (Staphylococcus aureus [5]): 4 µg/mL (≈ 12.4 µM); Selectivity Index (Staphylococcus aureus [6]): 8; Selectivity Index (Staphylococcus aureus [7]): 8
CCC(C)C(=O)c1c(O)cc(O)cc1O (stereo not drawn)	32 (≈ 152 µM)	> 64		
CCCCCCCCC(=O)c1c(O)cc(O)c(C(=O)CCCCCCCC)c1O	2 (≈ 4.92 µM)	4 (≈ 9.84 µM)		
CCCCCC(=O)c1c(O)cc(O)cc1O	32 (≈ 143 µM)	32 (≈ 143 µM)		
CCCC(=O)c1c(O)cc(O)cc1O	> 64	> 64		
CCCCC(=O)c1c(O)cc(O)c(C(=O)CCC(C)C)c1O	0.5 (≈ 1.62 µM)	0.5 (≈ 1.62 µM)	0.5 (≈ 1.62 µM)	MIC (Escherichia coli): > 64 µg/mL; MIC (Klebsiella pneumoniae): > 64 µg/mL; MIC (Pseudomonas aeruginosa): > 64 µg/mL; MBC (Staphylococcus aureus [4]): 2 µg/mL (≈ 6.49 µM); MBC (Staphylococcus aureus [5]): 8 µg/mL (≈ 25.9 µM); Selectivity Index (Staphylococcus aureus [6]): 4; Selectivity Index (Staphylococcus aureus [7]): 16; viability at 24 h [8]: 76%; viability at 24 h [9]: 75%
O=C(c1c(O)cc(O)c(C(=O)C2CCCC2)c1O)C1CCCC1	1 (≈ 3.14 µM)	1 (≈ 3.14 µM)	0.5 (≈ 1.57 µM)	MIC (Escherichia coli): 64 µg/mL (≈ 201 µM); MIC (Klebsiella pneumoniae): > 64 µg/mL; MIC (Pseudomonas aeruginosa): > 64 µg/mL; MBC (Staphylococcus aureus [4]): 4 µg/mL (≈ 12.6 µM); MBC (Staphylococcus aureus [5]): 4 µg/mL (≈ 12.6 µM); Selectivity Index (Staphylococcus aureus [6]): 4; Selectivity Index (Staphylococcus aureus [7]): 4; viability at 24 h [8]: 76%; viability at 24 h [9]: 75%
O=C(c1c(O)cc(O)cc1O)C1CCCCC1	64 (≈ 271 µM)	> 64		
CCCCCCCCCC(=O)c1c(O)cc(O)c(C(=O)CCCCCCCCC)c1O	8 (≈ 18.4 µM)	8 (≈ 18.4 µM)		
CCCCCCC(=O)c1c(O)cc(O)cc1O	16 (≈ 67.1 µM)	16 (≈ 67.1 µM)		
CCCCC(=O)c1c(O)cc(O)c(C(=O)CC(C)(C)C)c1O	0.5 (≈ 1.62 µM)	0.5 (≈ 1.62 µM)	0.5 (≈ 1.62 µM)	MIC (Escherichia coli): > 64 µg/mL; MIC (Klebsiella pneumoniae): > 64 µg/mL; MIC (Pseudomonas aeruginosa): > 64 µg/mL; MBC (Staphylococcus aureus [4]): 4 µg/mL (≈ 13 µM); MBC (Staphylococcus aureus [5]): 4 µg/mL (≈ 13 µM); Selectivity Index (Staphylococcus aureus [6]): 8; viability at 24 h [8]: 76%; viability at 24 h [9]: 75%
CC(C)CCC(=O)c1c(O)cc(O)c(C(=O)CCC(C)C)c1O	0.5 (≈ 1.55 µM)	0.5 (≈ 1.55 µM)	0.5 (≈ 1.55 µM)	MIC (Escherichia coli): > 64 µg/mL; MIC (Klebsiella pneumoniae): > 64 µg/mL; MIC (Pseudomonas aeruginosa): > 64 µg/mL; MBC (Staphylococcus aureus [4]): 2 µg/mL (≈ 6.2 µM); MBC (Staphylococcus aureus [5]): 2 µg/mL (≈ 6.2 µM); Selectivity Index (Staphylococcus aureus [6]): 4; Selectivity Index (Staphylococcus aureus [7]): 4
Cc1onc(-c2ccccc2)c1C(=O)N[C@@H]1C(=O)N2[C@@H]1SC(C)(C)[C@@H]2C(=O)O [OXACILLIN]			16 (≈ 39.9 µM)	Activity (Staphylococcus aureus [10]): inactive
CCCCCCCCCCCCCCCC(=O)c1c(O)cc(O)cc1O	> 64	> 64		
CCCCC(=O)c1c(O)cc(O)c(C(=O)CCCC)c1O	2 (≈ 6.79 µM)	2 (≈ 6.79 µM)	0.5 (≈ 1.7 µM)	MIC (Escherichia coli): 64 µg/mL (≈ 217 µM); MIC (Klebsiella pneumoniae): > 64 µg/mL; MIC (Pseudomonas aeruginosa): > 64 µg/mL; MBC (Staphylococcus aureus [4]): 2 µg/mL (≈ 6.79 µM); MBC (Staphylococcus aureus [5]): 4 µg/mL (≈ 13.6 µM)
O=Cc1c(O)cc(O)cc1O [PHLOROGLUCINALDEHYDE]	> 64	> 64		
CCCCCCCC(=O)c1c(O)cc(O)cc1O	8 (≈ 31.7 µM)	8 (≈ 31.7 µM)		
O=C(O)c1cn(C2CC2)c2cc(N3CCNCC3)c(F)cc2c1=O [CIPROFLOXACIN]	0.25 (≈ 0.754 µM)	0.25 (≈ 0.754 µM)	0.25 (≈ 0.754 µM)	
CCCCC(=O)c1c(O)cc(O)c(C(=O)C2CCCCC2)c1O	0.5 (≈ 1.56 µM)	0.5 (≈ 1.56 µM)	0.5 (≈ 1.56 µM)	MIC (Escherichia coli): > 64 µg/mL; MIC (Klebsiella pneumoniae): > 64 µg/mL; MIC (Pseudomonas aeruginosa): > 64 µg/mL; MBC (Staphylococcus aureus [4]): 1 µg/mL (≈ 3.12 µM); MBC (Staphylococcus aureus [5]): 4 µg/mL (≈ 12.5 µM); Selectivity Index (Staphylococcus aureus [6]): 2; Selectivity Index (Staphylococcus aureus [7]): 8; viability at 24 h [8]: 76%; viability at 24 h [9]: 75%
COc1cc(OC)c(C(C)=O)c(O)c1C(C)=O	> 64	> 64		
CC(C)CCC(=O)c1c(O)cc(O)cc1O	32 (≈ 143 µM)	64 (≈ 285 µM)		
CC(C)C(=O)c1c(O)cc(O)c(C(=O)C(C)C)c1O	4 (≈ 15 µM)	4 (≈ 15 µM)		
CC(C)C(=O)c1c(O)cc(O)cc1O [PHLOROISOBUTYROPHENONE]	32 (≈ 163 µM)	64 (≈ 326 µM)		
O=C(Cc1ccccc1)c1c(O)cc(O)cc1O	32 (≈ 131 µM)	> 64		
